According to article PMC7226106, “Population Pharmacokinetics/Pharmacodynamics of Dabrafenib Plus Trametinib in Patients with BRAF-Mutated Metastatic Melanoma” (Cancers, 2020):
Read-outs that look alike come from different tables or passages of the source.

Experiments:
[1] = Population pharmacokinetic model of dabrafenib/hydroxy-dabrafenib (NONMEM) from plasma concentrations; type: in vivo, human (patients); details: for Vd/F: both sexes, human, plasma, oral, 150 mg twice daily, read-out: V2/F, apparent central volume of distribution of DAB
Text: Seventy-three outpatients treated with DAB were enrolled from July 2015 to June 2017 in this observational multicentric study including three hospitals of the Assistance Publique—Hôpitaux de Paris (Cochin, Henri Mondor, and Avicenne). To be eligible, patients needed to meet the following criteria: a minimal age of 18 years, metastatic BRAF^V600-mutated solid tumors, treatment with DAB or CombiDT with at least one available DAB concentration measurement.
DAB, dabrafenib-d9 (internal standard, IS), and TRA were purchased from LGC Standards (Molsheim, France). A custom synthesis was developed by Shanghai Medicilon (Shanghai, China) for OHD. The plasma concentrations were assayed using a validated high-performance liquid chromatography-tandem mass spectrometry (HPLC-MS/MS) (ATSQ Quantum Ultra®mass spectrometer, ThermoFisher, Les Ulis, France). Chromatographic separation was performed on Accucore® C18 (2.1 × 50 mm; 2.6 µm) analytical column (ThermoFisher Scientific, Les Ulis, France) associated with a guard column packed with the same bonded phase. Two hundred microliters (µL) aliquot of plasma (calibration standard, internal quality control or patient sample) was mixed with 20 µL of IS solution. Then 600 µL acetonitrile with 1% (v/v) formic acid was added. Samples were mixed and centrifuged, and the supernatant was evaporated and recovered with 200 µL of mobile phase: water/methanol (70:30%, v/v) with formic acid (0.1% v/v). Ten microliters of this mixture were injected into the HPLC-MS/MS system. The calibration standards ranged from 10 to 2000 ng/mL for DAB and OHD and from 5 to 50 ng/mL for TRA.
Blood samples were collected in heparinized tubes during the treatment course, and the exact sample time was recorded. Plasma was separated by centrifugation (3000 rpm, 5 min), and stored at −20 °C until analysis.
The non-linear mixed effects modeling program NONMEM v7.4.1 [34] with the Perl-Speaks NONMEM (PsN) Toolkit v4.8.0 [35] was used to build DAB/OHD and TRA models. Pirana v2.9.2 was used to assist in model development. […] Molar units were used for DAB/OHD analyses. Plasma samples with concentrations below the lower limit of quantification of the assay, non-reliable time information about blood sampling, or without dose information were excluded from the analysis.
A stepwise strategy was used to identify the base models that best fitted DAB/OHD and TRA pharmacokinetic data. Different structural models such as one or two compartments, with linear absorption with or without lag time, were compared. DAB and OHD were modeled simultaneously testing multi-compartment models for both compounds. We hypothesized that DAB was cleared by complete oxidation to OHD, since it is not eliminated as unchanged molecule in urine and accounts for less than 22% in feces. Moreover, the first-order absorption rate constant (ka) of DAB was fixed to 1.8 h^−1 according to a previously published value to allow an adequate estimate of all pharmacokinetic parameters. Since DAB and TRA are administered orally, the pharmacokinetic parameters represent apparent values. Exponential errors following a log-normal distribution were assumed for the description of IIV of all the pharmacokinetic parameters. Inter-occasion variability (IOV) was tested in both DAB/OHD and TRA models to assess differences in individual parameters across study occasions. Additive, proportional, and mixed error models were compared to depict the residual unexplained variability (RUV) for both drugs and metabolite. The correlation between DAB and OHD data was tested using the L2 item in NONMEM. […]

[2] = tested on: BRAF^V600-mutated MM patients; test: Safety: adverse events and dose-limiting toxicities (DLT) under CombiDT
Procedure: Patients initiated DAB at the recommended daily dose of 150 mg twice daily. In patients treated with CombiDT, TRA was started at 2 mg once daily. Reduced starting doses were allowed at physician discretion based on comorbidities and patients’ general condition. All AE were graded using the National Cancer Institute Common Toxicity Criteria v4.0. DAB treatment was continued until disease progression, unacceptable toxicity, or unfitness to receive it.

[3] = tested on: BRAF^V600-mutated metastatic melanoma; test: Survival (PFS, OS) and Cox exposure-survival analysis under CombiDT; type: in vivo, human (patients)
Procedure: (§1) Pharmacokinetic/pharmacodynamic analysis was conducted in BRAF^V600-mutated MM patients concomitantly treated with CombiDT. Regarding safety, the onset of DLT was considered as the clinical endpoint. A DLT was defined as any toxicity leading to dose reduction or temporary or permanent discontinuation of treatment. Regarding survival, the primary end point was progression free survival (PFS), the time from DAB and TRA treatment initiation to documented progression event (either clinical or radiological progression) or death from any cause. The secondary end-point was overall survival (OS), defined as the time from DAB and TRA treatment initiation to death from any cause. Radiographic evidence of progression was defined according to modified Response Evaluation Criteria in Solid Tumor (RECIST) v1.1 [41].
Multivariate Cox models according to a stepwise procedure were tested including all variables which were significant at 5% level in the univariate analyses.

[4] = set-up: method as in PMID 24408395; details: fixed in base and final model and bootstrap; cited from earlier work
[5] = set-up: method as in earlier work; details: preclinical data; cited from earlier work
[6] = cited from earlier work
[7] = Model-estimated systemic exposure (AUC) in BRAF^V600-mutated MM patients treated with CombiDT; details: for AUC: human, plasma, oral
Procedure: as §1
Systemic exposures to DAB, OHD, and TRA (AUCDAB, AUCOHD, and AUCTRA, respectively) were calculated with classic equations, composite DAB and OHD AUC (AUCDAB+OHD) as previously explained and AUCOHD/DAB as the ratio of AUCOHD over AUCDAB. Univariate Fisher and Wilcoxon models were performed to identify which parameters could contribute to the onset of DLT. The following variables were tested: sex, age at treatment initiation, BMI, Eastern Cooperative Oncology Group Performance Status (ECOG PS: grade 0-1 vs ≥2), lactate dehydrogenase (LDH) level (<1.5N vs. ≥1.5N), AUCDAB, AUDOHD, AUCDAB+OHD, and AUCTRA.
Multivariate Cox models according to a stepwise procedure were tested including all variables which were significant at 5% level in the univariate analyses. All the pharmacokinetic/pharmacodynamic analyses were performed using R program v3.6.1 with RStudio v1.1.383 (http://www.r-project.org).

[8] = bootstrap median (n = 500 samples)
[9] = reference models built upon clinical trial data

SMILES: CC(C)(C)c1nc(-c2cccc(NS(=O)(=O)c3c(F)cccc3F)c2F)c(-c2ccnc(N)n2)s1 [DAB, Dabrafenib]
- difference in pharmacokinetics ([1]; DAB monotherapy vs. combiDT (ΔOFV = −2.9, p > 0.05)): did not differ
- IIV CL/F, interindividual variability (coefficient of variation) ([1]; base DAB/OHD model): 21.9%
- IIV V2/F, interindividual variability (coefficient of variation) ([1]; base DAB/OHD model): 43.0%
- IOV, inter-occasion variability on CL/F (coefficient of variation) ([1]; base DAB/OHD model): 17.2%
- RUV of DAB, residual unexplained variability (proportional) ([1]; base DAB/OHD model): 49.2%
- Tlag, lag time ([1]; base DAB/OHD model): 0.50 h
- CL/F, apparent clearance of DAB ([1]; base DAB/OHD model, n = 73, steady state): 17.7 L/h
- CL/F, apparent clearance of DAB [1, 8]: 19.2 L/h
- IIV CL/F, interindividual variability (coefficient of variation) [1, 8]: 14.4%
- IIV V2/F, interindividual variability (coefficient of variation) [1, 8]: 69.4%
- IOV, inter-occasion variability on CL/F (coefficient of variation) [1, 8]: 17.0%
- RUV of DAB, residual unexplained variability (proportional) [1, 8]: 48.2%
- Tlag, lag time [1, 8]: 0.499 h
- Vd/F ([1]; base DAB/OHD model): 39.5 L
- Vd/F [1, 8]: 38.3 L
- Vd/F ([1]; final DAB/OHD model): 39.1 L
- reduction of CL/F ([1]; comparing 20-year-old to 90-year-old patients): 55%
- difference in pharmacokinetics ([1]; concomitant proton-pump inhibitor (PPI) intake (ΔOFV = −3.5, p > 0.05)): did not differ
- CL/F, apparent clearance of DAB ([1]; final DAB/OHD model): 19.3 L/h
- IIV CL/F, interindividual variability (coefficient of variation) ([1]; final DAB/OHD model): 16.0%
- IIV V2/F, interindividual variability (coefficient of variation) ([1]; final DAB/OHD model): 50.8%
- IOV, inter-occasion variability on CL/F (coefficient of variation) ([1]; final DAB/OHD model): 17.4%
- RUV of DAB, residual unexplained variability (proportional) ([1]; final DAB/OHD model): 48.7%
- Tlag, lag time ([1]; final DAB/OHD model): 0.499 h
- base model variance of clearance explained by covariates (sex, age) ([1]; in vivo): 47%
- inter-occasion variability (IOV) on CL/F ([1]; model building): 17%
- reduction of CL/F ([1]; women vs. men): 17%
- patients in whom the drug dose was reduced ([2]; 52 MM patients): 15%
- patients in whom the drug was discontinued permanently ([2]; 52 MM patients): 8%
- patients who experienced a drug-related DLT ([2]; 52 MM patients): 23%
- median time to onset of drug-related DLT ([2]; human, in vivo): 110 days
- patients who discontinued DAB treatment because of cerebral progression ([3]; present cohort): 72%
- Risk of Death, HR (CI95%) for AUCM3 ([3]; univariate Cox model, n = 30): 1.02 (0.75–1.39)
- Risk of Progression, HR (CI95%) for AUCM3 ([3]; univariate Cox model, n = 30): 1.04 (0.82–1.32)
- ka, first-order absorption rate constant [4]: 1.8 fixed 1/h
- passage of the intact blood brain barrier [5]: may cross intact blood brain barrier
- unchanged molecule in feces [6]: less than 22%
- first-order absorption rate constant (ka) ([6]; previously published value, fixed in the model): 1.8 h⁻¹
- CL/F [6, 9]: 17.0 L/h
- Q/F [6, 9]: 3.30 L/h
- lag time [6, 9]: 0.482 h
- AUC ([7]; AUC, median (range), patients with DAB-related DLT (n = 12), last AUC before onset of DLT): 9620 ng·h/mL
- AUC ([7]; AUC, median (range), patients without DAB-related DLT (n = 40), average AUC over treatment course): 7480 ng·h/mL
- AUC ([7]; mean AUCDAB, after DAB dose reduction, n = 8): 5040 ng·h/mL
- AUC ([7]; mean AUCDAB, before DAB dose reduction, n = 8): 9010 ng·h/mL
- AUC ([7]; median AUCM3 (mean AUC during the first three months of treatment), 30 MM patients of the exposure-survival analysis): 7720 ng·h/mL
- decrease in mean AUCDAB after DAB dose reduction ([7]; n = 8): 1.8 fold
